Like-named read-outs stand apart in the source and are kept apart here.
Key:
[1] = tested on: C57BL/6 mice; conditions: 10 mice per dose
Method: Single dose LD50 in C57BL/6 mice for Cpd. 1 is determined following the method of Spearman and Karber described in Basic Exercises in Immunochemistry, 1979. Briefly, 0.5 ml of each dose is given to each of ten mice. The survivors are counted after 3 days and the LD50 is calculated using the following formula: [formula] where D=fold diferences between doses, R=total number dead, and N=total number of animals tested.

[2] = tested on: CD rats; conditions: 14 days
Method: (§1) Single oral dose LD50 in CD-1 mice and CD rats, obtained from Charles River U.K. Ltd., for Cpd. 1 is determined. […] Cpd. 1, dissolved in buffer, or just buffer is administered orally and the mice and rats are observed for 14 days after dosing. After 14 days, the animals are sacrified and necropsy is performed to check for gross evidence of toxicity.

[3] = tested on: CD-1 mice; conditions: 14 days
Method: as §1

[4] = tested on: L5178Y target cells; assay: MLTC assay of CTL activity, L5178Y target cells; assay type: cell-based, mouse
Description: A mixed lymphocyte tumor culture (MLTC) immunoassay, used to determine the cytotoxic lymphocyte (CTL) activity employs lymphocytes from either immunized (sensitized) mice or DBA/2 tumor dormant state animals in various stages of the tumor dormant state (TDS). The assay employs L5178Y target cells labeled with ^51 Chromium and effector cells (sensitized lymphocytes) from the above-mentioned sources. Effector-target cell ratios will vary with different experimental conditions and may or may not include irradiated stimulator L5178Y cells. Results are expressed as % lysis of target cells based on ratio of cpm of test group over cpm of total release (maximum) both of which are corrected for spontaneous release of ^51 Cr. The assay can be performed as an 8 or 18 hour release assay.
Ten days later the resultant tumor nodule, about 1 cm in size, is surgically excised. If the excision was successful, no subcutaneous tumors develop at the site of implantation. […] These mice are considered to be in the tumor dormant state.
The effect of Cpd. 1 on cytotoxic lymphocyte (CTL) activity is measured using five DBA/2 mice in the early stage of the TDS, 10 days after challenge with viable L5178Y tumor cells. Six doses of Cpd. 1, 0.001, 0.01, 0.1, 1.0, 10, or 100 μg/ml or just buffer are added in 100 μl volumes to MLTC microculture wells containing washed spleen lymphocytes from the DBA/2 mice, effector, and L5178Y target cells at varying E/T ratios. The MLTC reaction is performed in the presence or absence of irradiated L5178Y stimulator cells.
Five DBA/2 mice in the early stage of the TDS, 10 days after challenge with viable L5178Y tumor cells were used to measure the effect of Cpd. 1 on CTL activity. Two doses of Cpd. 1, 10, or 100 μg/ml, or just buffer were added in 100 μl volumes to the MLTC microculture wells containing washed spleen lymphocytes from the DBA/2 mice, effector and L5178Y target cells at varying E/T ratios. The MLTC reaction was performed in the presence or absence of irradiated L5178Y stimulator cells.
DBA/2 mice in the early stage of TDS, […] with viable L5178Y tumor cells, were used to measure the effect of Cpd. 2 on CTL activity. Cpd. 2, 0.1, 1.0, 10 or 100 μg/ml, or just buffer was added in 100 μl volumes to MLTC microculture wells containing washed spleen lymphocytes from DBA/2 mice, effector, and L5178Y target cells at varying E/T ratios. The MLTC reaction was performed in the presence or absence of irradiated L5178Y stimulator cells.
An MLTC assay is performed to assess the CTL activity and tumor target cell specificity of Cpd. 1. Tumor dormant spleen cells and normal spleen cells of DBA/2 mice are used as effector cells. Irradiated L5178Y cells are used as stimulator cells. ^51 Cr-labeled L5178Y cells and FLC-745 cells are used as target cells. The effector/target ratios studied are 100:1, 30:1 and 10:1.

Cc1ccc(C2(O)C(=O)OC3C(O)COC32O)o1.Cc1ccc(C2(O)C(=O)OC3C(O)COC32O)o1.O=C1CCC(=O)O1 (stereo not drawn) [Cpd. 1]
Number Dead on Day 3 ([1]; single i.p. 1,000 mg/kg): 0 | Number Dead on Day 3 ([1]; single i.p. 2,000 mg/kg): 0 | Number Dead on Day 3 ([1]; single i.p. 4,000 mg/kg): 7 | Number Dead on Day 3 ([1]; single i.p. 8,000 mg/kg): 10 | Number Dead on Day 3 ([1]; single i.p. 16,000 mg/kg): 10 | deaths or signs of toxicity ([2]; single oral 5 g/kg): No deaths or signs of toxicity | LD50 ([2]; single oral dose): > 5000 mg/kg | deaths or signs of toxicity ([3]; single oral 5 g/kg): No deaths or signs of toxicity | LD50 ([3]; single oral dose): > 5000 mg/kg | % Lysis ([4]; 0.001 μg/ml, E/T 10:1, TDS DBA/2, with stimulator cells): 16.7% | % Lysis ([4]; 0.001 μg/ml, E/T 10:1, TDS DBA/2, without stimulator cells): 3.9% | % Lysis ([4]; 0.001 μg/ml, E/T 30:1, TDS DBA/2, with stimulator cells): 40.2% | % Lysis ([4]; 0.001 μg/ml, E/T 30:1, TDS DBA/2, without stimulator cells): 12.2% | % Lysis ([4]; 0.001 μg/ml, E/T 100:1, TDS DBA/2, with stimulator cells): 71.1% | % Lysis ([4]; 0.001 μg/ml, E/T 100:1, TDS DBA/2, without stimulator cells): 23.4% | % Lysis ([4]; 0.01 μg/ml, E/T 10:1, TDS DBA/2, with stimulator cells): 20.6% | % Lysis ([4]; 0.01 μg/ml, E/T 10:1, TDS DBA/2, without stimulator cells): 3.5% | % Lysis ([4]; 0.01 μg/ml, E/T 30:1, TDS DBA/2, with stimulator cells): 55.8% | % Lysis ([4]; 0.01 μg/ml, E/T 30:1, TDS DBA/2, without stimulator cells): 15.7% | % Lysis ([4]; 0.01 μg/ml, E/T 100:1, TDS DBA/2, with stimulator cells): 77.1% | % Lysis ([4]; 0.01 μg/ml, E/T 100:1, TDS DBA/2, without stimulator cells): 26.0% | % Lysis ([4]; 0.1 μg/ml, E/T 10:1, TDS DBA/2, with stimulator cells): 20.2% | % Lysis ([4]; 0.1 μg/ml, E/T 10:1, TDS DBA/2, without stimulator cells): 3.5% | % Lysis ([4]; 0.1 μg/ml, E/T 30:1, TDS DBA/2, with stimulator cells): 51.0% | % Lysis ([4]; 0.1 μg/ml, E/T 30:1, TDS DBA/2, without stimulator cells): 14.8% | % Lysis ([4]; 0.1 μg/ml, E/T 100:1, TDS DBA/2, with stimulator cells): 79.0% | % Lysis ([4]; 0.1 μg/ml, E/T 100:1, TDS DBA/2, without stimulator cells): 31.6% | % Lysis ([4]; 1.0 μg/ml, E/T 10:1, TDS DBA/2, with stimulator cells): 15.6% | % Lysis ([4]; 1.0 μg/ml, E/T 10:1, TDS DBA/2, without stimulator cells): 4.6% | % Lysis ([4]; 1.0 μg/ml, E/T 30:1, TDS DBA/2, with stimulator cells): 46.0% | % Lysis ([4]; 1.0 μg/ml, E/T 30:1, TDS DBA/2, without stimulator cells): 20.0% | % Lysis ([4]; 1.0 μg/ml, E/T 100:1, TDS DBA/2, with stimulator cells): 71.5% | % Lysis ([4]; 1.0 μg/ml, E/T 100:1, TDS DBA/2, without stimulator cells): 40.1% | % Lysis ([4]; 10 μg/ml, E/T 6.25:1, TDS DBA/2, with stimulator cells): 60.5% | % Lysis ([4]; 10 μg/ml, E/T 6.25:1, TDS DBA/2, without stimulator cells): .7% | % Lysis ([4]; 10 μg/ml, E/T 10:1, TDS DBA/2, with stimulator cells): 15.9% | % Lysis ([4]; 10 μg/ml, E/T 10:1, TDS DBA/2, without stimulator cells): 4.6% | % Lysis ([4]; 10 μg/ml, E/T 12.5:1, TDS DBA/2, with stimulator cells): 67.1% | % Lysis ([4]; 10 μg/ml, E/T 12.5:1, TDS DBA/2, without stimulator cells): 6.9% | % Lysis ([4]; 10 μg/ml, E/T 25:1, TDS DBA/2, with stimulator cells): 72.0% | % Lysis ([4]; 10 μg/ml, E/T 25:1, TDS DBA/2, without stimulator cells): 8.1% | % Lysis ([4]; 10 μg/ml, E/T 30:1, TDS DBA/2, with stimulator cells): 42.0% | % Lysis ([4]; 10 μg/ml, E/T 30:1, TDS DBA/2, without stimulator cells): 16.8% | % Lysis ([4]; 10 μg/ml, E/T 50:1, TDS DBA/2, with stimulator cells): 75.7% | % Lysis ([4]; 10 μg/ml, E/T 50:1, TDS DBA/2, without stimulator cells): 12.8% | % Lysis ([4]; 10 μg/ml, E/T 100:1, TDS DBA/2, with stimulator cells): 74.3% | % Lysis ([4]; 10 μg/ml, E/T 100:1, TDS DBA/2, without stimulator cells): 36.3% | % Lysis ([4]; 100 μg/ml, E/T 6.25:1, TDS DBA/2, with stimulator cells): 56.3% | % Lysis ([4]; 100 μg/ml, E/T 6.25:1, TDS DBA/2, without stimulator cells): 6.1% | % Lysis ([4]; 100 μg/ml, E/T 10:1, TDS DBA/2, with stimulator cells): 21.2% | % Lysis ([4]; 100 μg/ml, E/T 10:1, TDS DBA/2, without stimulator cells): 8.6% | % Lysis ([4]; 100 μg/ml, E/T 12.5:1, TDS DBA/2, with stimulator cells): 75.7% | % Lysis ([4]; 100 μg/ml, E/T 12.5:1, TDS DBA/2, without stimulator cells): 11.1% | % Lysis ([4]; 100 μg/ml, E/T 25:1, TDS DBA/2, with stimulator cells): 79.8% | % Lysis ([4]; 100 μg/ml, E/T 25:1, TDS DBA/2, without stimulator cells): 16.6% | % Lysis ([4]; 100 μg/ml, E/T 30:1, TDS DBA/2, with stimulator cells): 54.2% | % Lysis ([4]; 100 μg/ml, E/T 30:1, TDS DBA/2, without stimulator cells): 18.7% | % Lysis ([4]; 100 μg/ml, E/T 50:1, TDS DBA/2, with stimulator cells): 71.6% | % Lysis ([4]; 100 μg/ml, E/T 50:1, TDS DBA/2, without stimulator cells): 21.8% | % Lysis ([4]; 100 μg/ml, E/T 100:1, TDS DBA/2, with stimulator cells): 87.3% | % Lysis ([4]; 100 μg/ml, E/T 100:1, TDS DBA/2, without stimulator cells): 42.0% | % Lysis ([4]; E + D (TDS effector, no stimulator), E/T 10:1): 9.0% | % Lysis ([4]; E + D (TDS effector, no stimulator), E/T 30:1): 29.8% | % Lysis ([4]; E + D (TDS effector, no stimulator), E/T 100:1): 52.8% | % Lysis ([4]; E + S + D (TDS effector, stimulator), E/T 10:1): 34.9% | % Lysis ([4]; E + S + D (TDS effector, stimulator), E/T 30:1): 69.2% | % Lysis ([4]; E + S + D (TDS effector, stimulator), E/T 100:1): 82.3% | % Lysis ([4]; N + D (normal effector, no stimulator), E/T 10:1): -10.3% | % Lysis ([4]; N + D (normal effector, no stimulator), E/T 30:1): -11.4% | % Lysis ([4]; N + D (normal effector, no stimulator), E/T 100:1): -12.4% | % Lysis ([4]; N + S + D (normal effector, stimulator), E/T 10:1): -10.9% | % Lysis ([4]; N + S + D (normal effector, stimulator), E/T 30:1): -9.7% | % Lysis ([4]; N + S + D (normal effector, stimulator), E/T 100:1): -9.5% | CTL activity of effector cells ([4]; in the presence of stimulator cells (Example 28)): significant specific enhancement of CTL activity | CTL activity ([4]; several concentrations, any E/T ratio, with or without stimulator cells, TDS): significant increase in CTL activity

From US4620014A, “2-furylbutyrolactones and methods for using same” (priority 1983, dated 1986)
